Counter-ions that a name gives are not always drawn.
What was measured:
[1] = WST-1 cytotoxicity test, A549; type: cell-based; conditions: human, A549 cells, 48 h, WST-1, mean ± SD of three experiments, read-out: relative viability (%) compared to untreated control; for viability at 48 h, 10 µM: A549, 10 µM; for viability at 48 h, 100 µM: A549, 100 µM
Procedure: (§1) In this study, the cytotoxic effects of nine new compounds (2, 3, 4, 5, 6, 7, 8, 9, 10) were tested on 10 human cell lines (nine cancer and one non-cancer cell line). The cell lines were treated with each compound at concentrations of 10 µM and 100 µM for 48 h. The proliferation capacity of the treated cells was determined by WST-1 test and compared against the proliferation rate of the untreated control cells (100%).
(§2) The cell lines Jurkat, MOLT-4, A2780, A549, HT-29, PANC-1, HeLa, MCF-7, SAOS-2, and MRC-5 (all purchased from Sigma Aldrich, Czech Republic) were included in this study. All cell lines were maintained according to the provider’s guidelines, and plated and treated in 96-well plates (500 to 30 × 10^3 cells per well). The tested compounds 2, 3, 4, 5, 6, 7, 8, 9, and 10 were dissolved in 0.1% DMSO and kept in 10 mM stock solutions. Before use, the stock solution was diluted in culture media at ratios of 1:100 and 1:1000. The studied cell lines were treated with the compounds 2, 3, 4, 5, 6, 7, 8, 9, and 10 at concentrations of 10 and 100 µM for 48 h. Control cells were tested in culture media with and without DMSO (0.1%). The cells were also treated with 1 µM doxorubicin as a cytotoxicity control.
(§3) The WST-1 (2-(4-iodophenyl)-3-(4-nitrophenyl)-5-(2,4-disulfophenyl)-2H-tetrazolium, monosodium salt) test (Roche, Mannheim, Germany) was used according to the manufacturer’s protocol to determine cell viability in all 10 cell lines 48 h after treatment with the tested compounds. The cells were analyzed in a Tecan Infinite M200 spectrometer (Tecan Group, Männedorf, Switzerland) at 440 nm.

[2] = WST-1 cytotoxicity test, MCF-7; type: cell-based; conditions: human, MCF-7 cells, 48 h, WST-1, mean ± SD of three experiments, read-out: relative viability (%) compared to untreated control; for viability at 48 h, 10 µM: MCF-7, 10 µM; for viability at 48 h, 100 µM: MCF-7, 100 µM
Procedure: as §1, §2, §3

[3] = WST-1 cytotoxicity test, SAOS-2; type: cell-based; conditions: human, SAOS-2 cells, 48 h, WST-1, mean ± SD of three experiments, read-out: relative viability (%) compared to untreated control; for viability at 48 h, 10 µM: SAOS-2, 10 µM; for viability at 48 h, 100 µM: SAOS-2, 100 µM
Procedure: as §1, §2, §3

[4] = test system: 10 human cell lines (nine cancer and one non-cancer cell line); assay: WST-1 cytotoxicity test, statements over all cell lines; type: cell-based; conditions: 100 µM, 48 h, studied cell lines
Procedure: as §1, §2, §3

[5] = Safe use evaluation in vivo (MTD, symptoms, blood biochemistry, histopathology); conditions: both sexes, mouse, in vivo, ip; BALB/c mice, i.p., two males and two females per group; read-out: MTD (maximum tolerated dose)
Text: Mild to moderate signs of intoxication could be observed once the MTD (maximum tolerated dose) was reached. In vivo, MTD is described as the highest dose of a given compound that can be administered before showing signs of toxicity (based on the same dose regimen or series) and whose excess would be expected to be fatal, yielding unreliable results. Therefore, a staged approach (including core and intermediate dose levels) has become a suitable strategy in this regard.
The symptoms described in Tables S1 (in Supplementary Materials) and S2 (in Supplementary Materials) diminished spontaneously within 2 h. After observing these symptoms, MTD thresholds were set at 100, 200, 100, 200, 2000, and 650 mg/kg for compounds 4, 5, 6, 7, 8, and 10, respectively. Animals receiving MTD were further examined by necropsy 48 h after administration. Plasma (reflecting biochemical changes in blood), intestine with mesentery (site of administration), and liver and kidney (elimination organs) were collected to evaluate the toxic potential of the tested compounds. For evaluation of the impact of the compounds on organ function, we performed blood biochemistry test 48 h after administration. The test focused on seven important indicators: glucose and amylase for normal function of pancreas, alanine aminotransferase (ALT), aspartate aminotransferase (AST), and alkaline phosphatase (ALP) for the normal function of liver, and urea and creatinine for the normal function of kidneys. […] According to Thoolen et al., focal necrosis can be occasionally seen in untreated rodents and therefore is not pathognomonic of hepatotoxicity, which is consistent with our findings.
Both male and female BALB/c mice (Velaz s r.o., Prague, Czech Republic) with an average weight of 21 ± 0.8 g and 21 ± 0.8 g, respectively, were selected for the safe use evaluation in vivo. The mice were housed in environmentally controlled breeding units (Faculty of Military Health Sciences vivarium; temperature 21 ± 1 °C, 12/12 h light/dark cycle) with access to food (Cerea corp., Pardubice, Czech Republic) and water ad libitum. The acclimatization period of the mice was at least 10 days before each experiment. All experimental procedures and protocols were reviewed and approved by the Ethics Committee of the Faculty of Military Health Sciences in Hradec Kralove, University of Defence in Brno. Compounds 2, 3, 4, 5, 6, 7, 8, 9, and 10 were dissolved in physiological saline solution (B. Braun Melsungen AG, Melsungen, Germany) and injected intraperitoneally (i.p.) into the corresponding mouse groups, which were composed of two males and two females. Several doses were administered to determine the maximum tolerated dose (MTD), which was assessed by close observation for signs of toxicity within the first two hours after administration of the compounds, and then regularly over the following 48 h. The observed symptoms were registered according to the laboratory Animal Science Association UK guidelines (for a detailed description, see [36]. After 48 h, the surviving animals were euthanized with CO2 and evaluated by basic macroscopic necropsy. Venous blood was collected into heparinized tubes (Scanlab Systems, Prague, Czech Republic) and the plasma was separated in a U-320R centrifuge (Boeco, Hamburg, Germany) to further evaluate the toxic potential of the tested compounds. The concentrations of glucose, urea, and creatinine and the levels of alanine aminotransferase (ALT), aspartate aminotransferase (AST), alkaline phosphatase (ALP), and amylase were evaluated in a qualified biochemical laboratory of the University Hospital Hradec Kralove (Hradec Kralove, Czech Republic). Additionally, intestine, liver, and kidney samples were collected for histopathologic examination. […]

| Compound | viability at 48 h, 10 µM [1] | viability at 48 h, 100 µM [1] | viability at 48 h, 10 µM [2] | viability at 48 h, 100 µM [2] | viability at 48 h, 10 µM [3] | viability at 48 h, 100 µM [3] | cytotoxic effect (in words) [4] | MTD at 48 h [5] |
| --- | --- | --- | --- | --- | --- | --- | --- | --- |
| Cc1cc(OCC(O)CN2CCN(CCO)CC2)ccc1Cl.Cl.Cl (stereo not shown) [Compound 4, 1-(4-chloro-3-methylphenoxy)-3-(4-(2-hydroxyethyl)piperazin-1-yl)propan-2-ol dihydrochloride] | 100 ± 4% | 99% | 105 ± 4% | 90 ± 3% | 99 ± 6% | 88 ± 4% | no significant cytotoxic effects | 100 mg/kg |
| Cl.Cl.Cl.OCCN1CCN(CCCNc2cccc3ccccc23)CC1 [Compound 6, 2-(4-(3-(naphthalen-1-ylamino)propyl)piperazin-1-yl)ethanol trihydrochloride] | 103 ± 7% | 93 ± 3% | 102 ± 8% | 94 ± 9% | 94 ± 6% | 111 ± 4% | no significant cytotoxic effects | 100 mg/kg |
| Cl.Cl.OC(CNc1ccccc1)CNc1ccccc1 [Compound 9, 1,3-bis(phenylamino)propan-2-ol dihydrochloride] | 107 ± 11% | 98 ± 13% | 100 ± 4% | 98 ± 11% | 106 ± 2% | 90 ± 4% | no significant cytotoxic effects |  |
| Cl.Cl.Cl.OCCN1CCN(CC(O)CNc2ccccc2)CC1 (stereo not shown) [Compound 10, 1-(phenylamino]-3-[4-(2-hydroxyethyl)piperazin-1-yl)propan-2-ol trihydrochloride] | 105 ± 9% | 105 ± 2% | 98 ± 2% | 96 ± 6% | 97 ± 6% | 102 ± 2% | no significant cytotoxic effects | 650 mg/kg |
| COc1ccc(NCCCN2CCN(CCO)CC2)cc1.Cl.Cl.Cl [Compound 7, 2-(4-(3-((4-methoxyphenyl)amino)propyl)piperazin-1-yl)ethanol trihydrochloride] | 95 ± 5% | 115% | 105 ± 6% | 104 ± 6% | 102 ± 7% | 109 ± 2% | no significant cytotoxic effects | 200 mg/kg |
| Cl.Cl.Cl.OCCN1CCN(CCCNc2ccccc2)CC1 [Compound 5, 2-(4-(3-(phenylamino)propyl)piperazin-1-yl)ethanol trihydrochloride] | 86 ± 7% | 104 ± 8% | 101 ± 6% | 106 ± 1% | 96 ± 4% | 111 ± 6% | no significant cytotoxic effects | 200 mg/kg |
| OCCN1CCN(CC(O)CN2CCN(CCO)CC2)CC1 [Compound 8, 1.3-bis [4-(2-hydroxyethyl)piperazin-1-yl)propan-2-ol tetrahydrochloride] | 97 ± 5% | 111 ± 11% | 101 ± 5% | 96 ± 7% | 102 ± 6% | 87 ± 7% | no significant cytotoxic effects | 2000 mg/kg |

Reference: PMC7038073, “Substituted Piperazines as Novel Potential Radioprotective Agents” (Molecules, 2020)
